Among the data in US9181266B2, “2-piperidin-1-yl-acetamide compounds for use as tankyrase inhibitors” (NOVARTIS AG, priority 2011, dated 2015) are IC50 and AC50 values, retold here.

In assay [1] the target is tankyrase 2 protein PARP domain, TNKS2P (Homo sapiens (Human), UniProt Q9H2K2). The experiment in a line: TNKS2 autoparsylation assay (LC/MS detection of nicotinamide). Particulars: read-out: TNKS2 AP IC50, 20 nM enzyme, 250 μM β-NAD+, 60 min.
In assay [2] the target is Human PARP1 (Homo sapiens (Human), UniProt P09874). The assay is described as follows: PARP1 autoparsylation assay (LC/MS detection of nicotinamide). The assay is classed as biochemical. The conditions noted are these: 20 nM enzyme, 250 μM β-NAD+, 60 min. The method, then:
(§1) The autoparsylation activity of the TNKS 1/2 or PARP1/2 enzymes was measured by the liquid chromatography-mass spectrometry (LC/MS) detection of nicotinamide as readout. Compound activity in inhibiting the TNKS and PARP autoparsylation was evaluated by IC50 measurements.

The test system of assay [3] is Wnt ligand-induced signaling in HEK293 cells. The assay is described as follows: Wnt-responsive Super-TOpFlash (STF) luciferase reporter gene assay. The assay is classed as cell-based. Particulars: Homo sapiens, Wnt3A condition medium. Summed up:
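HEK293 cells (8000/well, 5% FBS medium) treated with 20% mouse L-cell Wnt3A conditioned medium plus compounds in 10-point serial dilution; luciferase read next day. Inhibition calculated relative to Wnt3A-induced signal without compound and background without Wnt3A CM or compound.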

Assay [4] deals with Non-small lung cancer ABC-1 cells. The experiment in a line: Cellular proliferation assay (CellTiter-Glo). The class given is cell-based. Particulars: Homo sapiens, 72 h; ABC-1 cells, 3 days of compound treatment; read-out: ABC-1 IC50. (In general: ATP-based viability assays read luminescence as a measure of living cells.)
Method: Cellular Proliferation Assay to Determine Compound Inhibition of Cancer Cell Growth
Viable cells were measured after 3 days of compound treatment using the CellTiter-Glo assay (Promega, G7570). Assay was performed following the manufacture protocol.
For assay [5], the target named is human tankyrase 1 PARP catalytic domain, TNKS1P (Homo sapiens (Human), UniProt O95271). The experiment in a line: TNKS1 autoparsylation assay (LC/MS detection of nicotinamide). The conditions noted are these: read-out: TNKS1 AP IC50, 20 nM enzyme, 250 μM β-NAD+, 60 min.
human tankyrase 1 PARP catalytic domain, TNKS1P, sequence (O95271 1112-1317): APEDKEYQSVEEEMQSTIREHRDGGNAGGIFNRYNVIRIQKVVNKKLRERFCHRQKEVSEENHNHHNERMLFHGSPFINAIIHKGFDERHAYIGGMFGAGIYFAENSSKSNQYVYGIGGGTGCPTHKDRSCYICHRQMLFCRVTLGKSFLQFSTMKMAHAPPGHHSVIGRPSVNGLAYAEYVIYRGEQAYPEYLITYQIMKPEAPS
Assay [6] deals with Axin2 protein in SW480 cells. The assay is described as follows: Cellular ELISA assay of Axin2 protein stabilization. The class given is cell-based. Particulars: Homo sapiens, 24 hrs, read-out: Axin AC50. The procedure, abridged: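 SW480 colorectal cells seeded overnight, treated with compound, then lysed. Axin2 in lysates measured by sandwich ELISA: anti-Axin2 capture antibody coated at 1 μg/ml (pH 9.2), lysate 2 h at room temperature, biotinylated anti-Axin2 detection 2 h, then streptavidin-HRP 30 min.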
For orientation: In an ELISA, binding on a coated surface is turned into a signal by an enzyme label.

Assay [7] addresses PARP2 (Mus musculus (Mouse), UniProt O88554). The assay is described as follows: PARP2 autoparsylation assay (LC/MS detection of nicotinamide). The conditions noted are these: 20 nM enzyme, 250 μM β-NAD+, 60 min. The class given is biochemical. The method, then: as §1

PARP2, sequence (O88554 whole entry): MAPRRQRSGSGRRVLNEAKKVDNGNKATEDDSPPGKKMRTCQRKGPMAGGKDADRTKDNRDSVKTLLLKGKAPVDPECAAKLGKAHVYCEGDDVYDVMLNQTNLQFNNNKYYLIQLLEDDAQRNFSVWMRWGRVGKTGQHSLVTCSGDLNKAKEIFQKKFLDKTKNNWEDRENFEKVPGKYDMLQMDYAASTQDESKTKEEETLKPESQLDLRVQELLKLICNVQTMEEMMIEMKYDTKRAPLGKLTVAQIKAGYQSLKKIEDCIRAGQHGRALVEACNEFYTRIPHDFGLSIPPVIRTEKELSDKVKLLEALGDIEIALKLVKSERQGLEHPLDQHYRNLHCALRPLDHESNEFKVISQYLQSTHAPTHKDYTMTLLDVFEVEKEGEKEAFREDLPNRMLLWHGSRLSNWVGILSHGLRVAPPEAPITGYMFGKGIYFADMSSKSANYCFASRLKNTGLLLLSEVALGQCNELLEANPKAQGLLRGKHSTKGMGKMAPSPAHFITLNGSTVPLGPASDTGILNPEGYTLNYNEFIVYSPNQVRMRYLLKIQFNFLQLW
tankyrase 2 protein PARP domain, TNKS2P, sequence (Q9H2K2 959-1164): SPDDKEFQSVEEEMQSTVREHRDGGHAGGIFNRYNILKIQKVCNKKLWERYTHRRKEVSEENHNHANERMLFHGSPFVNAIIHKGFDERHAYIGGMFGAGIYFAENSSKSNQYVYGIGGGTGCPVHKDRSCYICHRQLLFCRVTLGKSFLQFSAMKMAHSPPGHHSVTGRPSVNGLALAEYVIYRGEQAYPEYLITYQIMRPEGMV
Human PARP1, sequence (P09874 whole entry): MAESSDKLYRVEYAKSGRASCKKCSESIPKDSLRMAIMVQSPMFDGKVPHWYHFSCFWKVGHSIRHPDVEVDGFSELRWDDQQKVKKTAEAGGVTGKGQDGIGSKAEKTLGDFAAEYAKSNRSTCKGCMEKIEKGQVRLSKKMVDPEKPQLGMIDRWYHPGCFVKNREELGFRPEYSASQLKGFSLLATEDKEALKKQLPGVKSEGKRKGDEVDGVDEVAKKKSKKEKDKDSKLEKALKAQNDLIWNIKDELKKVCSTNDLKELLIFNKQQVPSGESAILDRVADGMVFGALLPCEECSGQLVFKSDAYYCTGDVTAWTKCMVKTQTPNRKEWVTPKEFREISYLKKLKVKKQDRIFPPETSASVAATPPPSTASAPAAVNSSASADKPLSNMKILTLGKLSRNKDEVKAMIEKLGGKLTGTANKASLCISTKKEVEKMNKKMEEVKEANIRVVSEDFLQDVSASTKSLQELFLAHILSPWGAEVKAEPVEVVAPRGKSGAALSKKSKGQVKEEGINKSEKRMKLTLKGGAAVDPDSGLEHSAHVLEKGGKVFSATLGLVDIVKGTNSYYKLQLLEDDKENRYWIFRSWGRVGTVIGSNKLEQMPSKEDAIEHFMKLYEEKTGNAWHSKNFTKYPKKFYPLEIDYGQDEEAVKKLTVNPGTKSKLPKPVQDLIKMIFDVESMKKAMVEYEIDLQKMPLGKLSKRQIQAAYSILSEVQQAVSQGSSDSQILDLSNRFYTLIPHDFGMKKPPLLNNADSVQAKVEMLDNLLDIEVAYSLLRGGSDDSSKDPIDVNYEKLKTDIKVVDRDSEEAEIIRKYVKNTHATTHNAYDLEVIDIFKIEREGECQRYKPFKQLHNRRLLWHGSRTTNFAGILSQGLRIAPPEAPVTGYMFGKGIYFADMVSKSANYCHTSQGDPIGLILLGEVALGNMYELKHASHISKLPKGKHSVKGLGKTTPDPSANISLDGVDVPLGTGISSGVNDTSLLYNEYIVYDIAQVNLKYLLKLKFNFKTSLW

On to `COc1cccc(CN(Cc2nc3c(c(=O)[nH]2)COCC3)C(=O)CN2CCC(C(=O)c3ccc(F)cc3)CC2)c1` [Example 18, 2-(4-(4-Fluorobenzoyl)piperidin-1-yl)-N-(3-methoxybenzyl)-N-((4-oxo-4,5,7,8-tetrahydro-3H-pyrano[4,3-d]pyrimidin-2-yl)methyl)acetamide], for which the IC50 was 23 nM in assay [1]; greater than 19000 nM in assay [2]; 72 ± 62 nM in assay [3]; 535 ± 7 nM in assay [4]; 94 ± 1 nM in assay [5]; greater than 19000 nM in assay [7]. Moreover, the AC50 in assay [6] came to 493 ± 87 nM.

For `O=C(c1ccc(F)cc1)C1CCN(CC(=O)N(Cc2nc3c(c(=O)[nH]2)COCC3)C[C@H]2CCCO2)CC1` [Example 29, (R)-2-(4-(4-Fluorobenzoyl)piperidin-1-yl)-N-((4-oxo-4,5,7,8-tetrahydro-3H-pyrano[4,3-d]pyrimidin-2-yl)methyl)-N-((tetrahydrofuran-2-yl)methyl)acetamide], the half-maximal inhibitory concentration (IC50) in assay [1] is 38 ± 1 nM; in assay [2], greater than 19000 nM; in assay [3] it was 79 ± 80 nM; in assay [4], 1430 nM; in assay [5], 148 ± 10 nM; in assay [7] it was greater than 19000 nM. Further, in assay [6], the AC50 worked out at 990 ± 220 nM.

With `CC[C@H](C)N(Cc1nc2c(c(=O)[nH]1)COCC2)C(=O)CN1CCC(C(=O)c2ccc(F)cc2)CC1` [Example 31, (S)—N-sec-Butyl-2-(4-(4-fluorobenzoyl)piperidin-1-yl)-N-((4-oxo-4,5,7,8-tetrahydro-3H-pyrano[4,3-d]pyrimidin-2-yl)methyl)acetamide], the IC50 in assay [1] is 13 ± 1 nM; in assay [2], greater than 19000 nM; in assay [3] it was 37 ± 9 nM; in assay [4] it was 630 ± 400 nM; in assay [5], 38 ± 3 nM; in assay [7], greater than 19000 nM. The AC50 in assay [6] turned out to be 1100 ± 180 nM.

With `CC[C@@H](C)N(Cc1nc2c(c(=O)[nH]1)COCC2)C(=O)CN1CCC(C(=O)c2ccc(F)cc2)CC1` [Example 32, (R)—N-sec-Butyl-2-(4-(4-fluorobenzoyl)piperidin-1-yl)-N-((4-oxo-4,5,7,8-tetrahydro-3H-pyrano[4,3-d]pyrimidin-2-yl)methyl)acetamide], the IC50 is 13 ± 1 nM in assay [1]; greater than 19000 nM in assay [2]; 49 ± 14 nM in assay [3]; 370 nM in assay [4]; 43 ± 2 nM in assay [5]; greater than 19000 nM in assay [7]. Further, in assay [6], the AC50 was found to be 910 ± 150 nM.

On to `CC(C)N(Cc1nc2c(c(=O)[nH]1)COCC2)C(=O)CN1CCC(C(=O)c2ccc(F)cc2)CC1` [Example 33, 2-(4-(4-Fluorobenzoyl)piperidin-1-yl)-N-isopropyl-N-((4-oxo-4,5,7,8-tetrahydro-3H-pyrano[4,3-d]pyrimidin-2-yl)methyl)acetamide], for which the IC50 in assay [1] was 20 ± 1 nM; in assay [2], greater than 19000 nM; in assay [3], 59 ± 20 nM; in assay [4] it was 690 ± 100 nM; in assay [5], 95 ± 1 nM; in assay [7], greater than 19000 nM. Also, the AC50 in assay [6] stood at 2800 ± 1400 nM.

With `C[C@H](c1ccc(F)cc1)N(Cc1nc2c(c(=O)[nH]1)COCC2)C(=O)CN1CCC(C(=O)c2ccc(F)cc2)CC1` [Example 36, (R)-2-(4-(4-Fluorobenzoyl)piperidin-1-yl)-N-(1-(4-fluorophenyl)ethyl)-N-((4-oxo-4,5,7,8-tetrahydro-3H-pyrano[4,3-d]pyrimidin-2-yl)methyl)acetamide], the IC50 is 25 ± 7 nM in assay [1]; greater than 19000 nM in assay [2]; 127 ± 47 nM in assay [3]; 2630 nM in assay [4]; 104 ± 28 nM in assay [5]; greater than 19000 nM in assay [7]. The AC50 in assay [6] was found to be 1850 ± 310 nM.

As to `CC(c1ccc(F)cc1F)N(Cc1nc2c(c(=O)[nH]1)COCC2)C(=O)CN1CCC(C(=O)c2ccc(F)cc2)CC1` (centres unmarked) [Example 37, N-(1-(2,4-Difluorophenyl)ethyl)-2-(4-(4-fluorobenzoyl)piperidin-1-yl)-N-((4-oxo-4,5,7,8-tetrahydro-3H-pyrano[4,3-d]pyrimidin-2-yl)methyl)acetamide], the IC50 was 39.5 ± 7.8 nM in assay [1]; greater than 19000 nM in assay [2]; 96 ± 19 nM in assay [3]; 510 nM in assay [4]; 155 ± 34 nM in assay [5]; greater than 19000 nM in assay [7]. Further, the AC50 in assay [6] is 960 ± 520 nM.

Turning to `O=C(c1ccc(F)cc1)C1CCN(CC(=O)N(Cc2nc3c(c(=O)[nH]2)COCC3)Cc2ccccc2F)CC1` [Example 39, 2-(4-(4-Fluorobenzoyl)piperidin-1-yl)-N-(2-fluorobenzyl)-N-((4-oxo-4,5,7,8-tetrahydro-3H-pyrano[4,3-d]pyrimidin-2-yl)methyl)acetamide], the IC50 in assay [1] is 9 ± 1 nM; in assay [2], greater than 19000 nM; in assay [3], 17 ± 3 nM; in assay [4], 230 ± 99 nM; in assay [5] it was 43 ± 1 nM; in assay [7], greater than 19000 nM. Further, the AC50 in assay [6] came to 112 ± 18 nM.

With `O=C(c1ccc(F)cc1)C1CCN(CC(=O)N(Cc2nc3c(c(=O)[nH]2)COCC3)Cc2ccc(F)cc2F)CC1` [Example 40, N-(2,4-Difluorobenzyl)-2-(4-(4-fluorobenzoyl)piperidin-1-yl)-N-((4-oxo-4,5,7,8-tetrahydro-3H-pyrano[4,3-d]pyrimidin-2-yl)methyl)acetamide], the IC50 in assay [1] was 14 ± 1 nM; in assay [2] it was greater than 19000 nM; in assay [3], 28 ± 4 nM; in assay [4], 520 ± 14 nM; in assay [5], 77 ± 5 nM; in assay [7] it was greater than 19000 nM. Moreover, the AC50 in assay [6] was 431 ± 40 nM.

`C[C@H](C1CC1)N(Cc1nc2c(c(=O)[nH]1)COCC2)C(=O)CN1CCC(C(=O)c2ccc(F)cc2)CC1` [Example 41, (R)—N-(1-Cyclopropylethyl)-2-(4-(4-fluorobenzoyl)piperidin-1-yl)-N-((4-oxo-4,5,7,8-tetrahydro-3H-pyrano[4,3-d]pyrimidin-2-yl)methyl)acetamide]: the IC50 in assay [1] was 32 ± 1 nM; in assay [2], greater than 19000 nM; in assay [3], 32 ± 1.4 nM; in assay [4], 476 nM; in assay [5], 16 ± 1 nM; in assay [7], greater than 19000 nM. The AC50 in assay [6] stood at 720 ± 150 nM.

As for `C[C@@H](C1CC1)N(Cc1nc2c(c(=O)[nH]1)COCC2)C(=O)CN1CCC(C(=O)c2ccc(F)cc2)CC1` [Example 42, (S)—N-(1-Cyclopropylethyl)-2-(4-(4-fluorobenzoyl)piperidin-1-yl)-N-((4-oxo-4,5,7,8-tetrahydro-3H-pyrano[4,3-d]pyrimidin-2-yl)methyl)acetamide], the IC50 is 10 ± 1 nM in assay [1]; greater than 19000 nM in assay [2]; 45.7 ± 4.9 nM in assay [3]; 290 nM in assay [4]; 42 ± 3 nM in assay [5]; greater than 19000 nM in assay [7]. Also, in assay [6], the AC50 came to 589 ± 60 nM.

For the compound `O=C(c1ccc(F)cc1)C1CCN(CC(=O)N(CCF)Cc2nc3c(c(=O)[nH]2)COCC3)CC1` [Example 44, 2-[4-(4-Fluoro-benzoyl)-piperidin-1-yl]-N-(2-fluoro-ethyl)-N-(4-oxo-3,5,7,8-tetrahydro-4H-pyrano[4,3-d]pyrimidin-2-ylmethyl)-acetamide], the IC50 is 19 ± 1.4 nM in assay [1]; greater than 19000 nM in assay [2]; 1470 ± 360 nM in assay [3]; 6400 nM in assay [4]; 72 ± 1.4 nM in assay [5]; greater than 19000 nM in assay [7]. For the same compound, the AC50 in assay [6] is greater than 10000 nM.

On to `O=C(c1ccc(F)cc1)C1CCN(CC(=O)N(Cc2nc3c(c(=O)[nH]2)COCC3)CC(F)F)CC1` [Example 45, N-(2,2-Difluoro-ethyl)-2-[4-(4-fluoro-benzoyl)-piperidin-1-yl]-N-(4-oxo-3,5,7,8-tetrahydro-4H-pyrano[4,3-d]pyrimidin-2-ylmethyl)-acetamide], for which the IC50 in assay [1] is 10.2 ± 7.4 nM; in assay [2], greater than 19000 nM; in assay [3] it was 16 ± 9 nM; in assay [4], 509 ± 47 nM; in assay [5] it was 37 ± 17 nM; in assay [7], greater than 19000 nM. For the same compound, in assay [6], the half-maximal activity concentration (AC50) was determined as 450 ± 90 nM.

Regarding `O=C(c1ccc(F)cc1)C1CCN(CC(=O)N(Cc2nc3c(c(=O)[nH]2)COCC3)CC(F)(F)F)CC1` [Example 48, 2-[4-(4-Fluoro-benzoyl)-piperidin-1-yl]-N-(4-oxo-3,5,7,8-tetrahydro-4H-pyrano[4,3-d]pyrimidin-2-ylmethyl)-N-(2,2,2-trifluoro-ethyl)-acetamide], the IC50 in assay [1] is 14 ± 1 nM; in assay [2] it was greater than 19000 nM; in assay [3] it was 14 ± 6 nM; in assay [4] it was 790 ± 180 nM; in assay [5], 55 ± 3 nM; in assay [7], greater than 19000 nM. Also, the AC50 in assay [6] was 610 ± 240 nM.

One may read the IC50 as the concentration at which inhibition is half-maximal. A word on the AC50: it is the concentration giving half of the maximal activity seen.
